From PubChem BioAssay (NCI)
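In this assay, cells in 96-well plates receive the compound at five concentrations for 48 hours. Endpoints are linearly interpolated between the surrounding concentrations. The concentration for 50% growth inhibition is given as GI50. At the TGI there is no net growth.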

Key:
Assay in all cases: NCI anticancer screen, dose series, 48 h
[1] = test system: LOX IMVI melanoma
[2] = test system: SR leukemia
[3] = test system: CAKI-1 renal
[4] = test system: ACHN renal
[5] = test system: K-562 leukemia
[6] = test system: NCI-H522 lung
[7] = test system: DU-145 prostate
[8] = test system: SK-MEL-2 melanoma
[9] = test system: UACC-257 melanoma
[10] = test system: MALME-3M melanoma

In the case of `CC1=C(C(=O)Nc2ccc(Cl)c(Cl)c2)C(c2cccc(Oc3ccccc3)c2)NC(=S)N1` (stereo unspecified), the GI50 [1] is reported as 7.48 µM, the TGI [1] is reported as 14.7 µM and the GI50 [2] is reported as 44.9 µM. For the same compound, the TGI [2] was over 50 µM, the GI50 [3] was 8.48 µM and the TGI [3] was 15.4 µM. It also gave a GI50 [4] of 8.07 µM, a TGI [4] of 15.1 µM and a GI50 [5] of 12.4 µM. For the same compound, the TGI [5] was over 50 µM, the GI50 [6] was 11.7 µM and the TGI [6] was 21.8 µM. It also gave a GI50 [7] of 6.88 µM, a TGI [7] of 13.3 µM and a GI50 [8] of 9.38 µM. The TGI [8] was 18.9 µM, the GI50 [9] was 9.73 µM and the TGI [9] was 22 µM.

Work on `OCc1ccc(N2CCC2c2ccc(F)cc2)cc1Cl` (stereo unspecified) yielded a GI50 [1] of 22.5 µM, a TGI [1] of 51.1 µM and a GI50 [2] of 22.6 µM. For the same compound, the TGI [2] was 54.8 µM, the GI50 [3] was 12.9 µM and the TGI [3] was over 57.1 µM. The GI50 [10] was 29.4 µM, the TGI [10] was over 66.1 µM and the GI50 [4] was 30.8 µM. The TGI [4] was over 100 µM, the GI50 [5] was 6.66 µM and the TGI [5] was 58.6 µM. The GI50 [6] was 20.9 µM, the TGI [6] was 55.9 µM and the GI50 [7] was 35.8 µM. The TGI [7] was over 100 µM, the GI50 [8] was 11.4 µM and the TGI [8] was 29.3 µM. For the same compound, the GI50 [9] was 0.278 µM and the TGI [9] was 1.98 µM.

With `O=C(/C=C/C12c3ccccc3C(c3ccccc31)C1C(=O)NC(=O)C12)c1ccncc1` (stereo unspecified) the GI50 [1] was 1.68 µM, the TGI [1] was 3.51 µM and the GI50 [2] was 1.76 µM. For the same compound, the TGI [2] was 7.34 µM, the GI50 [3] was 2.58 µM and the TGI [3] was 11.7 µM. It also gave a GI50 [10] of 3.16 µM, a TGI [10] of 12.2 µM and a GI50 [4] of 2.83 µM. It also gave a TGI [4] of 8.39 µM, a GI50 [5] of 1.88 µM and a TGI [5] of over 100 µM. It also gave a GI50 [6] of 1.61 µM, a TGI [6] of 3.74 µM and a GI50 [7] of 2.8 µM. It also gave a TGI [7] of 11.8 µM, a GI50 [8] of 2.88 µM and a TGI [8] of 7.72 µM. It also gave a GI50 [9] of 2.7 µM and a TGI [9] of 9.19 µM.

`COc1ccc(-c2nc3sccn3c2/C(N)=N/C(=N)N)cc1OC` gave a GI50 [1] of 37.5 µM, a TGI [1] of over 100 µM and a GI50 [2] of 30.5 µM. It also gave a TGI [2] of 77.3 µM, a GI50 [3] of 87.7 µM and a TGI [3] of over 100 µM. The GI50 [10] was 13.3 µM, the TGI [10] was 32.9 µM and the GI50 [4] was over 100 µM. It also gave a TGI [4] of over 100 µM, a GI50 [5] of 27.6 µM and a TGI [5] of over 100 µM. The GI50 [6] was 7.85 µM, the TGI [6] was over 100 µM and the GI50 [7] was 52.4 µM. It also gave a TGI [7] of over 100 µM, a GI50 [8] of 29.4 µM and a TGI [8] of over 100 µM. The GI50 [9] was 40.7 µM and the TGI [9] was over 100 µM.

`COc1cc(CNc2cnc3cc(N)cc(N)c3n2)cc(OC)c1` gave a GI50 [2] of 18.8 µM, a TGI [2] of over 100 µM and a GI50 [3] of 24.8 µM. It also gave a TGI [3] of 52.3 µM, a GI50 [5] of 11.3 µM and a TGI [5] of 47 µM. It also gave a GI50 [6] of 23.8 µM, a TGI [6] of 78.2 µM and a GI50 [7] of 41.4 µM. It also gave a TGI [7] of over 100 µM, a GI50 [8] of 66.7 µM and a TGI [8] of over 100 µM.

For `NC(Cc1c[nH]c2c(O)cccc12)C(=O)O` (stereo unspecified), the GI50 [1] was over 100 µM, the TGI [1] was over 100 µM and the GI50 [2] was over 100 µM. For the same compound, the TGI [2] was over 100 µM, the GI50 [3] was over 100 µM and the TGI [3] was over 100 µM. It also gave a GI50 [10] of over 100 µM, a TGI [10] of over 100 µM and a GI50 [4] of over 100 µM. The TGI [4] was over 100 µM, the GI50 [5] was over 100 µM and the TGI [5] was over 100 µM. For the same compound, the GI50 [6] was over 100 µM, the TGI [6] was over 100 µM and the GI50 [7] was over 100 µM. The TGI [7] was over 100 µM, the GI50 [9] was over 100 µM and the TGI [9] was over 100 µM.

`O=C1CC(c2ccc3c(c2)OCO3)Nc2ccccc21` (stereo unspecified) gave a GI50 [1] of 5.91 µM, a TGI [1] of 20.5 µM and a GI50 [2] of 4.56 µM. It also gave a TGI [2] of over 100 µM, a GI50 [3] of 5.31 µM and a TGI [3] of 47.5 µM. The GI50 [10] was 14.5 µM, the TGI [10] was 30.2 µM and the GI50 [4] was 7.22 µM. For the same compound, the TGI [4] was over 87.4 µM, the GI50 [5] was 3.33 µM and the TGI [5] was over 100 µM. For the same compound, the GI50 [6] was 12.9 µM, the TGI [6] was 38.8 µM and the GI50 [7] was 3.1 µM. The TGI [7] was 12.6 µM, the GI50 [8] was 12.7 µM and the TGI [8] was over 62.8 µM. The GI50 [9] was 26.4 µM and the TGI [9] was over 60.4 µM.

For `O=C1C(Cl)=C(Nc2cccc(Cl)c2)C(=O)N1Cc1ccc(Cl)cc1Cl`, the GI50 [1] was under 0.0316 µM, the TGI [1] was 11.5 µM and the TGI [2] was 8.9 µM. The GI50 [3] was 5.36 µM, the TGI [3] was 48.5 µM and the GI50 [10] was 4.17 µM. For the same compound, the TGI [10] was 19 µM, the GI50 [4] was 0.409 µM and the TGI [4] was 7.71 µM. For the same compound, the GI50 [5] was 0.834 µM, the TGI [5] was over 87.5 µM and the GI50 [6] was 0.265 µM. It also gave a TGI [6] of 5.86 µM, a GI50 [7] of 5.87 µM and a TGI [7] of 18.2 µM. The GI50 [8] was 1.6 µM, the GI50 [9] was 5.94 µM and the TGI [9] was 24.8 µM.

For `CC1(C)CCc2c(c3c(c4c(=O)c(O)c(-c5ccc(O)cc5)oc24)OC(C)(C)CC3)O1`, the GI50 [1] was 90.5 µM, the TGI [1] was over 100 µM and the GI50 [2] was over 100 µM. For the same compound, the TGI [2] was over 100 µM, the GI50 [3] was over 100 µM and the TGI [3] was over 100 µM. The GI50 [10] was over 100 µM, the TGI [10] was over 100 µM and the GI50 [4] was 48.9 µM. The TGI [4] was over 100 µM, the GI50 [5] was over 100 µM and the TGI [5] was over 100 µM. For the same compound, the GI50 [6] was over 100 µM, the TGI [6] was over 100 µM and the GI50 [7] was 85.1 µM. It also gave a TGI [7] of over 100 µM, a GI50 [8] of 67.2 µM and a TGI [8] of over 100 µM.

`Cc1ccc(C(=O)/C(=C/c2ccc([N+](=O)[O-])cc2)SCc2ccc(Cl)cc2)cc1` gave a GI50 [1] of 0.445 µM, a TGI [1] of 1.65 µM and a GI50 [2] of 0.325 µM. For the same compound, the TGI [2] was over 100 µM, the GI50 [3] was 1.7 µM and the TGI [3] was 4.9 µM. It also gave a GI50 [10] of 4.34 µM, a TGI [10] of 19.2 µM and a GI50 [4] of 1.69 µM. For the same compound, the TGI [4] was 3.13 µM, the GI50 [6] was 1.64 µM and the TGI [6] was 3.54 µM. The GI50 [7] was 5.33 µM, the TGI [7] was over 100 µM and the GI50 [8] was 15.8 µM. The TGI [8] was 63.2 µM, the GI50 [9] was 9.77 µM and the TGI [9] was 34.2 µM.

In the case of `COc1cc(-c2nn(-c3ccc(NC(=O)c4ccc(Cl)c(C(F)(F)F)c4)cc3)cc2-c2ccncc2)ccc1Cl`, the GI50 [1] is reported as 1.55 µM, the TGI [1] is reported as 3.88 µM and the GI50 [2] is reported as 3.2 µM. For the same compound, the TGI [2] was over 37.8 µM, the GI50 [3] was 1.71 µM and the TGI [3] was 7.29 µM. It also gave a GI50 [10] of 1.46 µM, a TGI [10] of 5.05 µM and a GI50 [4] of 3.35 µM. For the same compound, the TGI [4] was over 100 µM, the GI50 [5] was 1.81 µM and the TGI [5] was 5.67 µM. It also gave a GI50 [7] of 4.59 µM, a TGI [7] of over 100 µM and a GI50 [8] of 3.12 µM. For the same compound, the TGI [8] was over 28.5 µM, the GI50 [9] was 6.91 µM and the TGI [9] was over 100 µM.

In the case of `Cc1nc2ccccc2c(N)c1-c1cc(C)c2c(C)nc3ccccc3c2n1`, the GI50 [1] is reported as 0.248 µM, the TGI [1] is reported as 0.717 µM and the GI50 [2] is reported as 0.19 µM. It also gave a TGI [2] of 2.59 µM, a GI50 [3] of 1.55 µM and a TGI [3] of 2.94 µM. The GI50 [10] was 1.27 µM, the TGI [10] was 2.59 µM and the GI50 [4] was 0.237 µM. The TGI [4] was 0.599 µM, the GI50 [5] was 0.256 µM and the TGI [5] was over 100 µM. It also gave a GI50 [6] of 2.41 µM, a TGI [6] of over 20.5 µM and a GI50 [7] of 0.479 µM. The TGI [7] was 1.67 µM, the GI50 [9] was 1.79 µM and the TGI [9] was 3.29 µM.

In the case of `CSc1nc2c(c(=O)[nH]1)N=C1c3ccccc3C(=O)C1C(c1ccccc1)N2` (stereo unspecified), the GI50 [1] is reported as 5.65 µM, the TGI [1] is reported as over 100 µM and the GI50 [2] is reported as 1.51 µM. For the same compound, the TGI [2] was over 100 µM, the GI50 [3] was 2.18 µM and the TGI [3] was over 100 µM. For the same compound, the GI50 [10] was 2.33 µM, the TGI [10] was over 100 µM and the GI50 [4] was 3.73 µM. The TGI [4] was over 100 µM, the GI50 [5] was 1.27 µM and the TGI [5] was over 100 µM. The GI50 [6] was 1.41 µM, the TGI [6] was 30.4 µM and the GI50 [7] was 13.4 µM. It also gave a TGI [7] of over 100 µM, a GI50 [8] of 9.02 µM and a TGI [8] of over 100 µM.
